# Laboratory results: patent US20230167073A1 (Teijin Pharma Limited, priority 2020, published 2023)
# Target: T1, Human TRPC6 (Homo sapiens, UniProt Q9Y210)
# T1 construct: expressed in transfected cells
# T1 sequence (Q9Y210 1-931): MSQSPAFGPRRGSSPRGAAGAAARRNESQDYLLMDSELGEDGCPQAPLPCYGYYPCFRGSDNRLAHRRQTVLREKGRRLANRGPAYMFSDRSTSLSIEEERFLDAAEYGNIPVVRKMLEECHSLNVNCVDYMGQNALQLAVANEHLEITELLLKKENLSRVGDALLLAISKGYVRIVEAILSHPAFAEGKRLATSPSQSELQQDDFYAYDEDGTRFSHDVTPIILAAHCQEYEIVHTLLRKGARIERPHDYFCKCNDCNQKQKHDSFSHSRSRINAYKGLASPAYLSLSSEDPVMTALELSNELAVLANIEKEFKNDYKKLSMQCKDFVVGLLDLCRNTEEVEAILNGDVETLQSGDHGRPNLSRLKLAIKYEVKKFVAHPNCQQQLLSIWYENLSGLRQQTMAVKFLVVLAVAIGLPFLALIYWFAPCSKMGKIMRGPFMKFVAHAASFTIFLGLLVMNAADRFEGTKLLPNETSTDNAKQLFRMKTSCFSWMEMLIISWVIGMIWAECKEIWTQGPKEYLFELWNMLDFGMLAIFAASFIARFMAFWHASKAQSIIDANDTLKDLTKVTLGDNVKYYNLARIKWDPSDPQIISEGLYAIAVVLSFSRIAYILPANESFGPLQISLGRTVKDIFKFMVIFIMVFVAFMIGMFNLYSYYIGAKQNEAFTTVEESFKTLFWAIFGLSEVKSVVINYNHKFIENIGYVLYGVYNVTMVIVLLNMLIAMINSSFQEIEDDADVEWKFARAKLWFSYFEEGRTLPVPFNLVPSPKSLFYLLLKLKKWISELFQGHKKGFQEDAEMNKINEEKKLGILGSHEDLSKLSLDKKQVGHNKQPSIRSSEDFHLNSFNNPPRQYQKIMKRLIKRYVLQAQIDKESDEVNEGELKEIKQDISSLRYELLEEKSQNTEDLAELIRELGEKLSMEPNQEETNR
# Test: Evaluation of TRPC6 channel inhibitory activity (1), FLIPR Calcium 5 Assay Kit, OAG stimulation (Compound Nos. 1-1293)
# Assay type: cell-based
# Settings: Human TRPC6 stably-expressing cells, OAG 30 μM, FLIPR Calcium 5 Assay Kit; read-out: Inhibitory activity (pIC50 class) (converted)
# Procedure, shortened: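 The FLIPR signal is maximum fluorescence after 30 μM OAG minus minimum before compound, measured in a human TRPC6 stable line loaded with Calcium 5 dye. Compounds were preincubated 20 min. pIC50 came from four-parameter logistic fitting of inhibition rates and is given as symbol ranges.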
row,SMILES,IC50
1,"CCCN(C)c1cc(Oc2cc(C#N)ccc2-c2ncc(CCN)cn2)n(C)n1 [compound 770, 4-[5-(2-aminoethyl)pyrimidin-2-yl]-3-[2-methyl-5-[methyl(propyl)amino]pyrazol-3-yl]oxybenzonitrile]",< 10 nM
2,"Cn1nc(N2CCOCC2)cc1Oc1cc(C#N)ccc1-c1ncc(CCN)cn1 [compound 771, 4-[5-(2-aminoethyl)pyrimidin-2-yl]-3-(2-methyl-5-morpholin-4-ylpyrazol-3-yl)oxybenzonitrile]",10 to 1000 nM
3,"Cn1nc(N2CCOCC2)cc1Oc1cc(C#N)ccc1-c1ncc(CN)cn1 [compound 772, 4-[5-(aminomethyl)pyrimidin-2-yl]-3-(2-methyl-5-morpholin-4-ylpyrazol-3-yl)oxybenzonitrile]",< 10 nM
4,"Cn1nc(N2CCOCC2)cc1Oc1cc(C#N)ccc1-c1ccc(CN)cn1 [compound 773, 4-[5-(aminomethyl)pyridin-2-yl]-3-(2-methyl-5-morpholin-4-ylpyrazol-3-yl)oxybenzonitrile]",< 10 nM
5,"CCN(C)c1cc(Oc2cc(C#N)ccc2-c2ncc(CCN)cn2)n(C)n1 [compound 774, 4-[5-(2-aminoethyl)pyrimidin-2-yl]-3-[5-[ethyl(methyl)amino]-2-methylpyrazol-3-yl]oxybenzonitrile]",< 10 nM
6,"CC(C)N(C)c1cc(Oc2cc(C#N)ccc2-c2ncc(CCN)cn2)n(C)n1 [compound 775, 4-[5-(2-aminoethyl)pyrimidin-2-yl]-3-[2-methyl-5-[methyl(propan-2-yl)amino]pyrazol-3-yl]oxybenzonitrile]",< 10 nM
7,"Cn1nc(C2CC2)cc1Oc1cc(C#N)ccc1-n1cc2c(n1)CCNC2 [compound 776, 3-(5-cyclopropyl-2-methylpyrazol-3-yl)oxy-4-(4,5,6,7-tetrahydropyrazolo[4,3-c]pyridin-2-yl)benzonitrile]",> 1000 nM
8,"Cn1nc(C2CC2)cc1Oc1cc(C#N)ccc1-n1ncc2c1CCNC2 [compound 777, 3-(5-cyclopropyl-2-methylpyrazol-3-yl)oxy-4-(4,5,6,7-tetrahydropyrazolo[4,3-c]pyridin-1-yl)benzonitrile]",> 1000 nM
9,"Cn1nc(C2CC2)cc1Oc1cc(C#N)ccc1-c1ccc(CN2CCNCC2=O)cn1 [compound 778, 3-(5-cyclopropyl-2-methylpyrazol-3-yl)oxy-4-[5-[(2-oxopiperazin-1-yl)methyl]pyridin-2-yl]benzonitrile]",> 1000 nM
10,"Cn1nc(C2CC2)cc1Oc1cc(C#N)ccc1-c1ccc(CN2CCNCC2)cn1 [compound 779, 3-(5-cyclopropyl-2-methylpyrazol-3-yl)oxy-4-[5-(piperazin-1-ylmethyl)pyridin-2-yl]benzonitrile]",> 1000 nM
11,"Cn1nc(C2CC2)cc1Oc1cc(C#N)ccc1-c1ccc(C(=O)N2CCNCC2)cn1 [compound 780, 3-(5-cyclopropyl-2-methylpyrazol-3-yl)oxy-4-[5-(piperazine-1-carbonyl)pyridin-2-yl]benzonitrile]",> 1000 nM
12,"Cn1nc(C2CC2)cc1Oc1cc(C#N)ccc1-c1ccc(NC(=O)C2CCNCC2)cn1 [compound 781, N-[6-[4-cyano-2-(5-cyclopropyl-2-methylpyrazol-3-yl)oxyphenyl]pyridin-3-yl]piperidine-4-carboxamide]",> 1000 nM
13,"CN(C(=O)C1CCNCC1)c1ccc(-c2ccc(C#N)cc2Oc2cc(C3CC3)nn2C)nc1 [compound 782, N-[6-[4-cyano-2-(5-cyclopropyl-2-methylpyrazol-3-yl)oxyphenyl]pyridin-3-yl]-N-methylpiperidine-4-carboxamide]",> 1000 nM
14,"Cn1nc(C2CC2)cc1Oc1cc(C#N)ccc1-c1ccc(CC(=O)N2CCNCC2)cn1 [compound 783, 3-(5-cyclopropyl-2-methylpyrazol-3-yl)oxy-4-[5-(2-oxo-2-piperazin-1-ylethyl)pyridin-2-yl]benzonitrile]",> 1000 nM
15,"CN(C)CCOc1ccc(-c2ccc(C#N)cc2Oc2cc(C3CC3)nn2C)nn1 [compound 784, 3-(5-cyclopropyl-2-methylpyrazol-3-yl)oxy-4-[6-[2-(dimethylamino)ethoxy]pyridazin-3-yl]benzonitrile]",> 1000 nM
16,"N#Cc1ccc(-c2ccc(CCN)cc2)c(Oc2sc(N3CCCCC3)nc2C(F)(F)F)c1 [compound 785, 4-[4-(2-aminoethyl)phenyl]-3-[[2-piperidin-1-yl-4(trifluoromethyl)-1,3-thiazol-5-yl]oxy]benzonitrile]",10 to 1000 nM
17,"CN(CC(F)F)c1cc(Oc2cc(C#N)ccc2-c2ncc(CCN)cn2)n(C)n1 [compound 786, 4-[5-(2-aminoethyl)pyrimidin-2-yl]-3-[5-[2,2-difluoroethyl(methyl)amino]-2-methylpyrazol-3-yl]oxybenzonitrile]",< 10 nM
18,"CN(CC(F)(F)F)c1cc(Oc2cc(C#N)ccc2-c2ncc(CCN)cn2)n(C)n1 [compound 787, 4-[5-(2-aminoethyl)pyrimidin-2-yl]-3-[2-methyl-5-[methyl(2,2,2-trifluoroethyl)amino]pyrazol-3-yl]oxybenzonitrile]",< 10 nM
19,"Cc1nc(Oc2cc(C#N)ccc2-c2ncc(CN)cn2)cc(OC2CCC2)n1 [compound 788, 4-[5-(aminomethyl)pyrimidin-2-yl]-3-(6-cyclobutyloxy-2-methylpyrimidin-4-yl)oxybenzonitrile]",> 1000 nM
20,"Cc1nc(Oc2cc(C#N)ccc2-c2ncc(CN)cn2)cc(N2CCC2)n1 [compound 789, 4-[5-(aminomethyl)pyrimidin-2-yl]-3-[6-(azetidin-1-yl)-2-methylpyrimidin-4-yl]oxybenzonitrile]",10 to 1000 nM

# Next, values leading:
row,IC50,SMILES
1,10 to 1000 nM,"CCN(C)c1cc(Oc2cc(C#N)ccc2-c2ncc(CN)cn2)nc(C)n1 [compound 790, 4-[5-(aminomethyl)pyrimidin-2-yl]-3-[6-[ethyl(methyl)amino]-2-methylpyrimidin-4-yl]oxybenzonitrile]"
2,10 to 1000 nM,"CCN(CC)c1cc(Oc2cc(C#N)ccc2-c2ncc(CN)cn2)nc(C)n1 [compound 791, 4-[5-(aminomethyl)pyrimidin-2-yl]-3-[6-(diethylamino)-2-methylpyrimidin-4-yl]oxybenzonitrile]"
3,10 to 1000 nM,"Cc1nc(Oc2cc(C#N)ccc2-c2ncc(CN)cn2)cc(N(C)C(C)C)n1 [compound 792, 4-[5-(aminomethyl)pyrimidin-2-yl]-3-[2-methyl-6-[methyl(propan-2-yl)amino]pyrimidin-4-yl]oxybenzonitrile]"
4,> 1000 nM,"Cc1nc(Oc2cc(C#N)ccc2-c2ncc(CN)cn2)cc(N2CC(F)C2)n1 [compound 793, 4-[5-(aminomethyl)pyrimidin-2-yl]-3-[6-(3-fluoroazetidin-1-yl)-2-methylpyrimidin-4-yl]oxybenzonitrile]"
5,10 to 1000 nM,"Cc1nc(Oc2cc(C#N)ccc2-c2ncc(CN)cn2)cc(N2CCC[C@H]2C)n1 [compound 794, 4-[5-(aminomethyl)pyrimidin-2-yl]-3-[2-methyl-6-[(2R)-2-methylpyrrolidin-1-yl]pyrimidin-4-yl]oxybenzonitrile]"
6,< 10 nM,"Cc1nc(Oc2cc(C#N)ccc2-c2ncc(CN)cn2)cc(N2CCC[C@@H]2C)n1 [compound 795, 4-[5-(aminomethyl)pyrimidin-2-yl]-3-[2-methyl-6-[(2S)-2-methylpyrrolidin-1-yl]pyrimidin-4-yl]oxybenzonitrile]"
7,10 to 1000 nM,"Cc1nc(Oc2cc(C#N)ccc2-c2ncc(CN)cn2)cc(N(C)CC2CC2)n1 [compound 796, 4-[5-(aminomethyl)pyrimidin-2-yl]-3-[6-[cyclopropylmethyl(methyl)amino]-2-methylpyrimidin-4-yl]oxybenzonitrile]"
8,> 1000 nM,"COCCN(C)c1cc(Oc2cc(C#N)ccc2-c2ncc(CN)cn2)nc(C)n1 [compound 797, 4-[5-(aminomethyl)pyrimidin-2-yl]-3-[6-[2-methoxyethyl(methyl)amino]-2-methylpyrimidin-4-yl]oxybenzonitrile]"
9,10 to 1000 nM,"COCCN(C)c1cc(Oc2cc(C#N)ccc2-c2ncc(CN)cn2)n(C)n1 [compound 798, 4-[5-(aminomethyl)pyrimidin-2-yl]-3-[5-[2-methoxyethyl(methyl)amino]-2-methylpyrazol-3-yl]oxybenzonitrile]"
10,< 10 nM,"COCCN(C)c1cc(Oc2cc(C#N)ccc2-c2ccc(CN)cn2)n(C)n1 [compound 799, 4-[5-(aminomethyl)pyridin-2-yl]-3-[5-[2-methoxyethyl(methyl)amino]-2-methylpyrazol-3-yl]oxybenzonitrile]"
11,10 to 1000 nM,"COCCCN(C)c1cc(Oc2cc(C#N)ccc2-c2ncc(CCN)cn2)n(C)n1 [compound 800, 4-[5-(2-aminoethyl)pyrimidin-2-yl]-3-[5-[3-methoxypropyl(methyl)amino]-2-methylpyrazol-3-yl]oxybenzonitrile]"
